Results from the supplement of paper PMC10307832.

Assays:
Test in all cases: relative viability (nuclei count vs DMSO), 5 days (fraction); higher = more cells survive
[1] = compound: CN(c1ncccc1CNc1nc(Nc2ccc3c(c2)CC(=O)N3)ncc1C(F)(F)F)S(C)(=O)=O + NC(=O)Nc1cc(-c2cccc(F)c2)sc1C(=O)N[C@H]1CCCNC1 [AZD7762] (partner 0.2 µM)
Method in brief: (§1)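 Lung cancer cell lines in 1536-well plates got either a single drug or a fixed anchor-drug dose together with five library-drug doses (not always all listed) in √10 steps, by pin tool, on the day after seeding. Nuclei were counted after 5 days, and relative viability is the treated-to-vehicle ratio of nuclei counts. Values are medians of duplicate plates.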

[2] = compound: CN(c1ncccc1CNc1nc(Nc2ccc3c(c2)CC(=O)N3)ncc1C(F)(F)F)S(C)(=O)=O + CC(C)C[C@H](NC(=O)[C@H](Cc1ccccc1)NC(=O)c1cnccn1)B(O)O [Bortezomib] (partner 0.002 µM)
Method in brief: as §1

[3] = compound: CN(c1ncccc1CNc1nc(Nc2ccc3c(c2)CC(=O)N3)ncc1C(F)(F)F)S(C)(=O)=O + Nc1ncn([C@H]2C[C@H](O)[C@@H](CO)O2)c(=O)n1 [Decitabine] (partner 2 µM)
Method in brief: as §1

[4] = compound: CN(c1ncccc1CNc1nc(Nc2ccc3c(c2)CC(=O)N3)ncc1C(F)(F)F)S(C)(=O)=O + Cc1cc(Nc2cc(N3CCN(C)CC3)nc(Sc3ccc(NC(=O)C4CC4)cc3)n2)n[nH]1 [Tozasertib] (partner 0.1 µM)
Method in brief: as §1

| Cell Line | relative viability ([1]; first compound 0.01 µM) | relative viability ([1]; first compound 0.03162 µM) | relative viability ([1]; first compound 0.1 µM) | relative viability ([1]; first compound 0.3162 µM) | relative viability ([1]; first compound 1 µM) | relative viability ([2]; first compound 0.01 µM) | relative viability ([2]; first compound 0.03162 µM) | relative viability ([2]; first compound 0.1 µM) | relative viability ([2]; first compound 0.3162 µM) | relative viability ([2]; first compound 1 µM) | relative viability ([3]; first compound 0.01 µM) | relative viability ([3]; first compound 0.03162 µM) | relative viability ([3]; first compound 0.1 µM) | relative viability ([3]; first compound 0.3162 µM) | relative viability ([3]; first compound 1 µM) | relative viability ([4]; first compound 0.01 µM) | relative viability ([4]; first compound 0.03162 µM) | relative viability ([4]; first compound 0.1 µM) | relative viability ([4]; first compound 0.3162 µM) | relative viability ([4]; first compound 1 µM) |
| --- | --- | --- | --- | --- | --- | --- | --- | --- | --- | --- | --- | --- | --- | --- | --- | --- | --- | --- | --- | --- |
| NCI-H1792 | 0.721 | 0.822 | 0.674 | 0.722 | 0.755 | 1.02 | 0.999 | 0.83 | 0.924 | 0.941 | 0.469 | 0.586 | 0.523 | 0.606 | 0.586 |  |  |  |  |  |
| NCI-H1793 | 0.407 | 0.541 | 0.543 | 0.53 | 0.452 |  |  |  |  |  | 0.494 | 0.563 | 0.458 | 0.45 | 0.432 | 0.32 | 0.379 | 0.332 | 0.222 | 0.23 |
| NCI-H1563 |  |  |  |  |  | 0.906 | 0.808 | 0.849 | 0.867 | 0.876 |  |  |  |  |  |  |  |  |  |  |
| NCI-H1395 | 0.41 | 0.368 | 0.421 | 0.398 | 0.424 |  |  |  |  |  | 0.711 | 0.767 | 0.678 | 0.771 | 0.785 | 0.724 | 0.806 | 0.784 | 0.856 | 0.782 |
| NCI-H1299 |  |  |  |  |  | 1.05 | 1.01 | 1.04 | 0.996 | 1.02 |  |  |  |  |  |  |  |  |  |  |
| NCI-H2228 |  |  |  |  |  | 0.817 | 1.24 | 1.05 | 1.06 | 1.02 |  |  |  |  |  | 0.271 | 0.243 | 0.249 | 0.239 | 0.207 |
| NCI-H2170 | 0.942 | 1.02 | 0.794 | 0.96 | 0.914 |  |  |  |  |  | 0.528 | 0.463 | 0.417 | 0.459 | 0.448 | 0.741 | 0.691 | 0.679 | 0.649 | 0.716 |
| NCI-H2342 | 0.506 | 0.516 | 0.472 | 0.402 | 0.404 |  |  |  |  |  | 0.802 | 0.728 | 0.631 | 0.742 | 0.717 | 0.524 | 0.493 | 0.561 | 0.409 | 0.489 |
| A549 |  |  |  |  |  |  |  |  |  |  | 0.271 | 0.258 | 0.285 | 0.257 | 0.257 |  |  |  |  |  |
| NCI-H358 | 0.552 | 0.553 | 0.381 | 0.533 | 0.339 |  |  |  |  |  | 0.195 | 0.221 | 0.251 | 0.221 | 0.183 | 0.0908 | 0.102 | 0.0923 | 0.103 | 0.0817 |
| CAL-12T | 0.677 | 0.603 | 0.559 | 0.647 | 0.633 | 1.07 | 0.886 | 0.856 | 0.919 | 0.878 |  |  |  |  |  | 0.271 | 0.249 | 0.274 | 0.271 | 0.209 |
| COR-L23 |  |  |  |  |  | 0.967 | 1.01 | 1.05 | 0.951 | 0.894 | 0.417 | 0.493 | 0.44 | 0.503 | 0.399 | 0.184 | 0.195 | 0.186 | 0.146 | 0.129 |
| IA-LM |  |  |  |  |  | 0.807 | 0.886 | 0.727 | 0.877 | 0.666 |  |  |  |  |  |  |  |  |  |  |
| NCI-H1650 |  |  |  |  |  | 0.229 | 0.196 | 0.232 |  | 0.192 | 0.502 | 0.474 | 0.513 | 0.426 | 0.47 | 0.497 | 0.359 | 0.429 | 0.323 | 0.269 |
| Calu-6 |  |  |  |  |  | 1.04 | 1.01 | 1.02 | 0.958 | 0.874 |  |  |  |  |  |  |  |  |  |  |
